# Laboratory results published in publication PMC11053098, “Unravelling and reconstructing the biosynthetic pathway of bergenin” (Nature Communications, 2024).
# Assays:
# AjOMT2 = tested on: T1, AjOMT2; assay: HPLC methyltransferase assay; assay type: biochemical, Ardisia japonica; conditions: co-substrate SAM; metal-dependent (Mg2+); details in Supplementary Methods 5-7; read-out: apparent Km
# T1 construct: cloned in pET28a (BamHI/EcoRI), E. coli Transetta (DE3), Ni-NTA purified
# AjCGT1 = tested on: T2, AjCGT1; assay: HPLC glycosyltransferase assay; assay type: biochemical, Ardisia japonica; conditions: co-substrate UDP-Glc; details in Supplementary Methods 5-7; substrate unstable in buffer; read-out: apparent Km
# T2 construct: full-length cDNA in pET28a (BamHI/EcoRI), E. coli Transetta (DE3), Ni-NTA purified
Compound,Km (AjOMT2),Km (AjCGT1)
"O=C(O)c1cc(O)c(O)c(O)c1 [compound 2, GA]",72 µM,–
"COc1c(O)cc(C(=O)O)cc1O [compound 3, 4-OMGA]",–,265 µM
"O=C1O[C@@H]2[C@@H](O)[C@H](O)[C@@H](CO)O[C@H]2c2c1cc(O)c(O)c2O [compound 6, norbergenin]",494 µM,–
